Source: patent US11434258B2, “Compounds (immunorhelins)” (ISR IMMUNE SYSTEM REGULATION HOLDING AB (PUBL), priority 2017, dated 2022)
Structures can show the parent of a compound that is named as a salt. Where two headings read alike, the source gives them in different places. Non-standard residues stand in square brackets, D forms with d. Residues, ends and D or L forms follow the SMILES beside them. dHis(τ-Bn) = N[C@H](Cc1cn(Cc2ccccc2)cn1)C(=O)O; pGlu = O=C1CC[C@@H](C(=O)O)N1

Assays:
[1] = Stability in aqueous media (PBS pH 7.4); assay type: physicochemical; parameters: unit not given here; conditions: phosphate buffer solution (PBS); PBS pH 7.4, 37° C., samples at T=0, 4, 24, 96 h; read-out: Stability grading (t1/2)
From the text: LC/MS data was collected for compound identity.

GnRHR = biological target: T1, GnRHR (Homo sapiens, UniProt P30968); assay: Calcium assay in CHO-K1 cells (Genscript), FLIPR; assay type: cell-based; conditions: CHO-K1/GnRHR/Ga15 cells, relative to agonist control, read-out: GNRHR Stimulation at 1 μM
T1 construct: host or cells: CHO-K1 (CHO-K1/GnRHR/Ga15)
T1 sequence (P30968 1-328): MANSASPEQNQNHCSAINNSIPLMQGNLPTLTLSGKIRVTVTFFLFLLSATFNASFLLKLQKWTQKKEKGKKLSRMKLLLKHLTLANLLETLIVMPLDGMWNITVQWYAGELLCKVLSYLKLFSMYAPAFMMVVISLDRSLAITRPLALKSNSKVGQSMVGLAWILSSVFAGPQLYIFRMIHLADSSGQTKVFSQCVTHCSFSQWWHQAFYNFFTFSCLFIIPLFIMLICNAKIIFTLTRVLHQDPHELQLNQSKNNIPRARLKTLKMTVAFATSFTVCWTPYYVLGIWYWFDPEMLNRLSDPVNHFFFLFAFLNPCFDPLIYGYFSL

[2] = Solubility in PBS (LC/UV AUC trend); conditions: PBS pH 7.4, 0.2 mg/ml; rating 1 (good) to 5 (poor)
T cells = assay: Immune stimulation assay: MHC class I expression on T cells (PBMCs, flow cytometry); assay type: cell-based, human; conditions: PBMCs from a healthy donor, with IL-2, 72 hours
Experimental: FIG. 1: Expression of MHC class I after stimulation of T cells with increasing concentrations of GnRH II. PBMCs from a healthy donor was stimulated with GnRH II and IL-2 for 72 hours. Data points represent mean fluorescent intensity of MCH class I expression on CD4^+ T cells (blue triangles) or CD8^+ T cells (black squares) measured with flow cytometry.
(black). […] Data points represent mean fluorescent intensity of MCH class I expression on CD4^+ T cells (A) or CD8^+ T cells (B) measured with flow cytometry.
Human peripheral blood mononuclear cells (PBMCs) were purified from healthy donors with Ficoll-Hypaque density centrifugation. Cells were cultured in RPMI-1640 medium (Invitrogen) supplemented with 10% fetal bovine serum, 100 […], 100 μg/mL streptomycin and IL-2 (100 U/mL) for 72 hours in 37° C., 5% CO2.

[3] = pH 7.4

Structure (SMILES) | half-life at 0.2 mg/ml [1] | activation at 1 µM (GnRHR) | Solubility grading [2] | MHC class I expression on T cells (T cells) | Solubility grading [3]
NC(=O)CNC(=O)[C@@H]1CCCN1C(=O)[C@H](Cc1ccc(O)cc1)NC(=O)[C@H](Cc1c[nH]c2ccccc12)NC(=O)[C@@H](Cc1c[nH]c2ccccc12)NC(=O)[C@H](Cc1ccc(O)cc1)NC(=O)[C@H](CO)NC(=O)[C@H](Cc1c[nH]c2ccccc12)NC(=O)[C@H](Cc1c[nH]cn1)NC(=O)[C@@H]1CCC(=O)N1 [Compound 64, pGlu-His-Trp-Ser-Tyr-D-Trp-Trp-Tyr-Pro-Gly-amide] ([pGlu]HWSY[dW]WYPG-NH2) | < 96 | 50% | 5 | – | –
N=C(N)NCCC[C@H](NC(=O)[C@H](Cc1c[nH]c2ccccc12)NC(=O)[C@@H](Cc1c[nH]c2ccccc12)NC(=O)[C@H](Cc1ccc(O)cc1)NC(=O)[C@H](CO)NC(=O)[C@H](Cc1c[nH]c2ccccc12)NC(=O)[C@H](Cc1c[nH]cn1)NC(=O)[C@@H]1CCC(=O)N1)C(=O)N1CCC[C@H]1C(=O)NCC(N)=O [Compound 66, pGlu-His-Trp-Ser-Tyr-D-Trp-Trp-Arg-Pro-Gly-amide] ([pGlu]HWSY[dW]WRPG-NH2) | > 96 | 83% | 5 | – | –
CCNC(=O)[C@@H]1CCCN1C(=O)[C@H](CCCNC(=N)N)NC(=O)[C@H](Cc1c[nH]c2ccccc12)NC(=O)[C@@H](Cc1cn(Cc2ccccc2)cn1)NC(=O)[C@H](Cc1ccc(O)cc1)NC(=O)[C@H](CO)NC(=O)[C@H](Cc1c[nH]c2ccccc12)NC(=O)[C@H](Cc1c[nH]cn1)NC(=O)[C@@H]1CCC(=O)N1 [Compound 67, pGlu-His-Trp-Ser-Tyr-D-Bhi-Trp-Arg-Pro-NHEt] ([pGlu]HWSY[dHis(τ-Bn)]WRP-NHEt) | < 96 | 117% | 1 | – | –
CC(C)C[C@H](NC(=O)[C@@H](Cc1c[nH]c2ccccc12)NC(=O)[C@H](Cc1c[nH]cn1)NC(=O)[C@H](CO)NC(=O)[C@H](Cc1c[nH]c2ccccc12)NC(=O)[C@H](Cc1c[nH]cn1)NC(=O)[C@@H]1CCC(=O)N1)C(=O)N[C@@H](CCCNC(=N)N)C(=O)N1CCC[C@H]1C(=O)NCC(N)=O [Compound 68, pGlu-His-Trp-Ser-His-D-Trp-Leu-Arg-Pro-Gly-amide] ([pGlu]HWSH[dW]LRPG-NH2) | > 96 | 86% | 1 | – | –
NC(=O)CNC(=O)[C@@H]1CCCN1C(=O)[C@H](Cc1ccc(O)cc1)NC(=O)[C@H](Cc1c[nH]c2ccccc12)NC(=O)CNC(=O)[C@H](Cc1c[nH]cn1)NC(=O)[C@H](CO)NC(=O)[C@H](Cc1c[nH]c2ccccc12)NC(=O)[C@H](Cc1c[nH]cn1)NC(=O)[C@@H]1CCC(=O)N1 [GnRH II] ([pGlu]HWSHGWYPG-NH2) | – | – | – | directly activates these cells | –
CCNC(=O)[C@@H]1CCCN1C(=O)[C@H](CCCNC(=N)N)NC(=O)[C@H](CC(C)C)NC(=O)[C@@H](Cc1cn(Cc2ccccc2)cn1)NC(=O)[C@H](Cc1ccc(O)cc1)NC(=O)[C@H](CO)NC(=O)[C@H](Cc1c[nH]c2ccccc12)NC(=O)[C@H](Cc1cnc[nH]1)NC(=O)[C@@H]1CCC(=O)N1 [Histrelin TFA] | – | – | – | – | 2
CCNC(=O)[C@@H]1CCCN1C(=O)[C@H](CCCNC(=N)N)NC(=O)[C@H](CC(C)C)NC(=O)[C@@H](Cc1cn(Cc2ccccc2)cn1)NC(=O)[C@H](Cc1ccc(O)cc1)NC(=O)[C@H](CO)NC(=O)[C@H](Cc1c[nH]c2ccccc12)NC(=O)[C@H](Cc1cnc[nH]1)NC(=O)[C@@H]1CCC(=O)N1 [Histrelin acetate] | – | – | – | – | 4
CCNC(=O)[C@@H]1CCCN1C(=O)[C@H](CCCNC(=N)N)NC(=O)[C@H](CC(C)C)NC(=O)[C@@H](CC(C)C)NC(=O)[C@H](Cc1ccc(O)cc1)NC(=O)[C@H](CO)NC(=O)[C@H](Cc1c[nH]c2ccccc12)NC(=O)[C@H](Cc1c[nH]cn1)NC(=O)[C@@H]1CCC(=O)N1 [Leuprorelin TFA] | – | – | – | – | 1
CCNC(=O)[C@@H]1CCCN1C(=O)[C@H](CCCNC(=N)N)NC(=O)[C@H](CC(C)C)NC(=O)[C@@H](CC(C)C)NC(=O)[C@H](Cc1ccc(O)cc1)NC(=O)[C@H](CO)NC(=O)[C@H](Cc1c[nH]c2ccccc12)NC(=O)[C@H](Cc1c[nH]cn1)NC(=O)[C@@H]1CCC(=O)N1 [Leuprorelin acetate] | – | – | – | – | 2
